Experiments:
leukemia cell line KG-1a = assay: Cell proliferation inhibitory activity, KG-1a; format: cell-based; conditions: Homo sapiens, 96 h, cells counted 4 days later with Cell Counting Kit-8
Protocol: (§1) Evaluations were carried out using colon carcinoma cell line SW620 (Cat. No. CCL-227), lung carcinoma cell line NCI-H460 (Cat. No. HTB-177), prostate cancer cell line DU 145 (Cat. No. HTB-81), breast cancer cell line MDA-MB-231 (Cat. No. HTB26) and leukemia cell line KG-1a (Cat. No. CCL-246.1) purchased from ATCC, pancreatic cancer cell line MIAPaCa-2 (Cat. No. CRL-1420) purchased from Dainippon Pharmaceutical, and ovarian cancer cell line IGROV1 received from the Netherland Cancer Institute. The cells were cultured under the conditions recommended by the supplier for each cell line, or with respect to IGROV1, according to the method described in Cancer Res. 59: 4559-4563, 1999. Cells suspended in media were added to solutions containing the test substances at various concentrations followed by culturing in a 5% CO2 incubator at 37° C. The numbers of cells were counted 4 days later with the Cell Counting Kit-8. IC50 values were calculated by assigning measured values in the case of not containing a test substance to an inhibition of 0%, and assigning measured values in the case of not containing a test substance or cells to an inhibition of 100%.

CDK3/Cyclin E complex = molecular target: T1, CDK3/Cyclin E complex (Homo sapiens, UniProt Q00526); assay: In vitro kinase assay, CDK3/Cyclin E complex; format: biochemical; conditions: recombinant protein (Upstate); read-out: CDK3/cyclinE IC50
T1 construct: purchased Upstate Inc. 14-487
T1 sequence (Q00526 whole entry): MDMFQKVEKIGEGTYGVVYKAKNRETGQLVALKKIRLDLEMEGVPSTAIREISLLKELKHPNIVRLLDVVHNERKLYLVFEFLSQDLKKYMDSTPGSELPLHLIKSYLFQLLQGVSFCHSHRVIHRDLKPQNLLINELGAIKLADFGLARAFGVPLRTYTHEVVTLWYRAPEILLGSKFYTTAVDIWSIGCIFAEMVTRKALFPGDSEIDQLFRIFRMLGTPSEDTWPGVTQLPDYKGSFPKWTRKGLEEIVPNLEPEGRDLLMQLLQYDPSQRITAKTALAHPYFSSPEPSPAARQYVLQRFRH
T1 sequence (P24864 whole entry partner): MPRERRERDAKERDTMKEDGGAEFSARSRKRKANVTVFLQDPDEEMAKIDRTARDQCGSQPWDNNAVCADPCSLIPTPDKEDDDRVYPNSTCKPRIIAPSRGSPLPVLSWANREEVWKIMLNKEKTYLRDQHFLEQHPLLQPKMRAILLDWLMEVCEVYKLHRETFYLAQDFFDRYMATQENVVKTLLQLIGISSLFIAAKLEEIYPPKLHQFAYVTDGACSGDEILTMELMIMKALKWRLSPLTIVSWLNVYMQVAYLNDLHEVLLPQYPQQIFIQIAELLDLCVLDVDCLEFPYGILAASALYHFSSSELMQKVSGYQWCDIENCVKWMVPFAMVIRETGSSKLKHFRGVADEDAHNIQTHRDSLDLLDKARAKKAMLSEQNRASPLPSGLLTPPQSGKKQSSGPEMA
Protocol: (§2) Inhibitory activity against Aurora A, CDK1/Cyclin B complex, CDK2/Cyclin E complex and CDK3/Cyclin E complex were measured by in vitro kinase assay using recombinant proteins.

CDK1/Cyclin B complex = molecular target: T2, CDK1/Cyclin B complex (Homo sapiens, UniProt P06493); assay: In vitro kinase assay, CDK1/Cyclin B complex; format: biochemical; conditions: recombinant protein (Upstate)
T2 construct: purchased Upstate Inc. 14-450
T2 sequence (P06493 whole entry): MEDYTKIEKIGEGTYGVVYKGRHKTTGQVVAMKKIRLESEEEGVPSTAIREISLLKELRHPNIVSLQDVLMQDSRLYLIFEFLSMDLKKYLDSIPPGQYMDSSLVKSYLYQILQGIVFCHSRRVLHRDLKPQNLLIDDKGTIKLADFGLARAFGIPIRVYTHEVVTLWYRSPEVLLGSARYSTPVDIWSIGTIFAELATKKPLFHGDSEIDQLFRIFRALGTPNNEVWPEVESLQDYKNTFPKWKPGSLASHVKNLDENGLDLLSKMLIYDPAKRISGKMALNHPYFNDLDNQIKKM
T2 sequence (P14635 whole entry partner): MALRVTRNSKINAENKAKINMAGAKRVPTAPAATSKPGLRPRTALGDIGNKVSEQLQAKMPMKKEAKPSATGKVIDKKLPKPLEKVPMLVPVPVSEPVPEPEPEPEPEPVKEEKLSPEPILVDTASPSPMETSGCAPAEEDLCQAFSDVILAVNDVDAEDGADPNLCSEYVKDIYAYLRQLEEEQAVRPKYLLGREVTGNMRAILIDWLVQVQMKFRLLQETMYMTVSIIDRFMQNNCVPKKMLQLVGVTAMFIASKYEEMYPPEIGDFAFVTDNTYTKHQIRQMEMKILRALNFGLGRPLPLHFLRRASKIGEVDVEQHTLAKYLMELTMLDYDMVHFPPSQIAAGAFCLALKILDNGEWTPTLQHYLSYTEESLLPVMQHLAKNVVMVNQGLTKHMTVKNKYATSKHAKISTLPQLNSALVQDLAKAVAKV
Protocol: (§3) Inhibitory activity against Aurora A, CDK1/Cyclin B complex, CDK2/Cyclin E complex and CDK3/Cyclin E complex were measured by in vitro kinase assay using recombinant proteins. The assays were carried out by using recombinant proteins (Upstate Inc.) for Aurora A, CDK1/Cyclin B complex, CDK2/Cyclin E complex and CDK3/Cyclin E complex (respective cat. nos. 14-511, 14-450, 14-448 and 14-487), in accordance with the procedure described in the product instructions thereof. The 50% inhibitory concentrations (IC50 values) were calculated by assigning measured values in the case of not containing a test compound to an inhibition of 0%, and assigning measured values in the case of not containing a test compound and enzyme to an inhibition of 100%.

CDK2/Cyclin E complex = CDK2/Cyclin E complex (Homo sapiens, UniProt P24941); assay: In vitro kinase assay, CDK2/Cyclin E complex; format: biochemical; conditions: recombinant protein (Upstate); read-out: CDK2/cyclinE IC50
Protocol: as §2

[1] = system: lung carcinoma cell line NCI-H460; assay: Cell proliferation inhibitory activity, NCI-H460; format: cell-based; conditions: Homo sapiens, 96 h, cells counted 4 days later with Cell Counting Kit-8
Protocol: as §1

Aurora A = molecular target: T3, Aurora A (Homo sapiens, UniProt O14965); assay: In vitro kinase assay, Aurora A; format: biochemical; conditions: recombinant protein (Upstate)
T3 construct: purchased Upstate Inc. 14-511
T3 sequence (O14965 1-403): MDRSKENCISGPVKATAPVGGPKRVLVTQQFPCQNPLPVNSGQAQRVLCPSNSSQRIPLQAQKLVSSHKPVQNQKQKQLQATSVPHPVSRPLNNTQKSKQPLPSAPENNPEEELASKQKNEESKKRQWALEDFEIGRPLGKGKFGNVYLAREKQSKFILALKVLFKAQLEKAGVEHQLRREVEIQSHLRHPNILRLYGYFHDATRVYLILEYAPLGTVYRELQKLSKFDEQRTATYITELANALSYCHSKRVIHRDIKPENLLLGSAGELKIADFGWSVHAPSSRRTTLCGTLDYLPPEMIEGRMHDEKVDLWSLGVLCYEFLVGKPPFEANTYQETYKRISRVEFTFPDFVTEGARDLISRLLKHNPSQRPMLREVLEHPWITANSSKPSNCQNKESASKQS
Protocol: as §3

[2] = system: colon carcinoma cell line SW620; assay: Cell proliferation inhibitory activity, SW620; format: cell-based, human; conditions: Homo sapiens, SW-620, 96 h, cells counted 4 days later with Cell Counting Kit-8
Protocol: as §1

recombinant human βARK1 = molecular target: T4, recombinant human βARK1 (Homo sapiens, UniProt P25098); assay: Inhibitory activity against βARK1 (33P phosphorylation of synthetic peptide); format: biochemical; conditions: recombinant human βARK1, 60 minutes at room temperature
T4 construct: made in house; host or cells: Sf-9 insect cells (baculovirus, pBacPAK8)
T4 sequence (P25098 1-689): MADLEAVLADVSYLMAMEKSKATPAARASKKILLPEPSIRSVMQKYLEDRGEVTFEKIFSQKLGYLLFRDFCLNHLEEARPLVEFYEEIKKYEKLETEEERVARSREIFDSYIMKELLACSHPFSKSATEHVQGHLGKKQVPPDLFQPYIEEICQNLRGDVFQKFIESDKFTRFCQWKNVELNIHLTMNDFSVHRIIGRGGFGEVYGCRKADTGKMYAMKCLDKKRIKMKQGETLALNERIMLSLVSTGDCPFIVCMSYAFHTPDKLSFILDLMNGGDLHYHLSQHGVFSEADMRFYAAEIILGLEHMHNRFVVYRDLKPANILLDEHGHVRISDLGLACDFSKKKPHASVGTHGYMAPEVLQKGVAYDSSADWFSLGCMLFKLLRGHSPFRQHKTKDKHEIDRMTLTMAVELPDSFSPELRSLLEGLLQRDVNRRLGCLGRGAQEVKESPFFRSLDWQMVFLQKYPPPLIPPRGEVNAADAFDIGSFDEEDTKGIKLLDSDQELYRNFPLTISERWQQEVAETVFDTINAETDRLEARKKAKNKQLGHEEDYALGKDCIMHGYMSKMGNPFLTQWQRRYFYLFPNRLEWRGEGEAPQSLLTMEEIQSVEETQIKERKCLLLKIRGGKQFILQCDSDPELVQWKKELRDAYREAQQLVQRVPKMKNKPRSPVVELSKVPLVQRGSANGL
Protocol: Human βARK1 was amplified by PCR based on the base sequence of human βARK1 mRNA registered in GenBank (Accession No. M80776) using a human leukocyte cDNA library (Gibco BRL Cat. No. 10421-022) as a template. The amplified cDNA fragment was inserted into a pBacPAK8 vector (Clontech) to construct a plasmid.
Recombinant human βARK1 was expressed using the BacPAK Baculovirus Expression System (Clontech, Cat. No. K1601-1). 1×10^6 Sf-9 cells were adhered to a 35 mm dish in 2.5 mL of TMN-FH Insect Medium containing 10 vol % FBS (Pharminogen, Cat. No. PM-21227M) and cultured overnight at 27° C. On the following day, the medium was removed and 500 ng of the above plasmid, BacPAK6 viral DNA cleaved with Bsu36I (5 μL) and 1.5 mL of the same medium mixed with 4 μL of Bacfectin were added followed by culturing for 5 hours, further adding 1.5 mL of medium and subsequently culturing for 5 days. […] The culture supernatant after 5 days was recovered and a plaque assay was carried out to isolate single plaques. These were then infected into Sf-9 cells and the resulting culture supernatant was designated as Passage 1 (1−3×10^11 pfu/mL). Passage 1 was added to 3×10^7 Sf-9 cells to a multiplicity of infection (MOI) of 0.1 (pfu/cell), suspension culturing was carried out for 5 days using a spinner flask, and the resulting culture supernatant was designated as Passage 2 (4×10^10 pfu/mL) and used as a viral liquid for large-volume expression.
Sf-9 cells at 3×10^9 cells/200 mL were infected by adding Passage 2 to an MOI of 100 followed by addition of medium to bring to a liquid volume of 2 L and further culturing for 3 days. After recovering the cells by centrifugation and washing three times with PBS, the cells were suspended in 100 mL of Lysis Buffer (20 mmol/L HEPES-HCl (pH 7.2), 5 mmol/L EDTA, 3 mmol/L phenylmethylsulfonyl fluoride (PMSF)). After lysing the cells by ultrasonic treatment at low temperature, the supernatant was recovered by centrifuging (45,000×g, 15 minutes) (sup1). NaCl was added to the resulting supernatant to a final concentration of 250 mmol/L followed by ultracentrifugation (300,000×g, 60 minutes) and using the subsequent supernatant as a crude cell extract (sup2).
Purification was carried out with reference to the literature (Benovic, J. L., Methods Enzymol. 1991; 200: 351-362; Kim, C. M. et al., Receptor 1993; 3: 39-55; Sohlemann, P. et al., FEBS Letters 1993; 324: 59-62). The crude cell extract was accurately brought to a volume of 400 mL with Buffer C (20 mmol/L HEPES-HCl (pH 7.2), 5 mmol/L EDTA, 0.02 vol % Triton X-100) followed by loading onto a 50 mL SP-Sepharose FF (Amersham Pharmacia Biotech) column equilibrated with Buffer C. […] ETA was carried out on each fraction using anti-GRK2 antibody (Santa-Cruz Cat. No. SC-562) and the positive fractions were collected (GRK2=βARK1). This was then diluted three-fold with Buffer C and loaded on a 5 mL HiTrap Heparin column (Amersham Pharmacia Biotech) column equilibrated with Buffer C. After washing the column with Wash Buffer (100 mmol/L NaCl, Buffer C), the column was eluted with an NaCl concentration gradient (100 to 600 mmol/L NaCl for 100 minutes, flow rate: 1 mL/min). The positive fractions as determined by ETA were collected and stored in a freezer at −80° C.
A synthetic peptide having an amino acid sequence of biotinated-[…] was used in accordance with a previous report (Chen, C. Y. et al., J. Biol. Chem. 1993; 268: 7825-7831). This synthetic peptide can also be synthesized with reference to known synthesis methods (for example, Chen, C. Y. et al., J. Biol. Chem. 1993; 268: 7825-7831, Biochemistry 1991; 30: 5118-5125). 2 μl of a DMSO solution in which the test compound was diluted to as to be […] the final concentration was dispensed into a 96-well plate (round bottom) (Falcon 351190) (final concentration: 4 vol % DMSO). […]

[3] = system: prostate cancer cell line DU 145; assay: Cell proliferation inhibitory activity, DU 145; format: cell-based, human; conditions: Homo sapiens, 96 h, cells counted 4 days later with Cell Counting Kit-8
Protocol: as §1

| SMILES | IC50 (CDK3/Cyclin E complex) | IC50 (CDK1/Cyclin B complex) | IC50 (Aurora A) | IC50 (recombinant human βARK1) | IC50 (leukemia cell line KG-1a) | IC50 (CDK2/Cyclin E complex) | IC50 [1] | IC50 [2] | IC50 [3] |
| --- | --- | --- | --- | --- | --- | --- | --- | --- | --- |
| O=C(CNc1ccc(Cl)cc1)Nc1nc2ccc3[nH]ncc3c2s1 [compound 9] | 81 nM | 372 nM | – | – | < 100 nM | 40 nM | – | – | – |
| CC(C)CC(Nc1cccc(O)c1)C(=O)Nc1nc2ccc3[nH]ncc3c2s1 (centres unmarked) [compound 25] | 448 nM | – | 137 nM | – | < 100 nM | 366 nM | 3200 nM | 1600 nM | – |
| CC(C)(Nc1ccc(Cl)c(-n2cc[nH]c2=O)c1)C(=O)Nc1nc2c(C(F)(F)F)cc3[nH]ncc3c2s1 [compound 97] | 279 nM | – | – | 12 nM | – | – | – | – | – |
| CCC(=O)Nc1cc(NC(C)(C)C(=O)Nc2nc3c(C(F)(F)F)cc4[nH]ncc4c3s2)ccc1Cl [compound 56] | 304 nM | – | – | 3.2 nM | 400 nM | 390 nM | 2500 nM | 1100 nM | 2500 nM |
| CC(C)(Nc1ccc(Cl)nc1)C(=O)Nc1nc2c(C(F)(F)F)cc3[nH]ncc3c2s1 [compound 96] | 277 nM | – | – | – | – | 347 nM | 3900 nM | 2300 nM | 3600 nM |
| CC(C)(Nc1cccc(C(=O)NCCC(N)=O)c1)C(=O)Nc1nc2c(C(F)(F)F)cc3[nH]ncc3c2s1 [compound 101] | 21 nM | 39 nM | 118 nM | – | – | 30 nM | – | 2000 nM | 4400 nM |
| CC(=O)Nc1cc(NC(C(=O)Nc2nc3c(C(F)(F)F)cc4[nH]ncc4c3s2)c2ccccc2)ccc1Cl (centres unmarked) [compound 30] | 128 nM | – | – | 9.8 nM | – | 172 nM | 4100 nM | 1800 nM | 2700 nM |

Further lines, with some results ahead:

| IC50 (CDK3/Cyclin E complex) | IC50 (CDK1/Cyclin B complex) | IC50 (Aurora A) | IC50 (recombinant human βARK1) | SMILES | IC50 (leukemia cell line KG-1a) | IC50 (CDK2/Cyclin E complex) | IC50 [1] | IC50 [2] | IC50 [3] |
| --- | --- | --- | --- | --- | --- | --- | --- | --- | --- |
| 99 nM | 446 nM | 19 nM | – | CC(C)(Nc1ccc(Cl)c(C(=O)O)c1)C(=O)Nc1nc2c(C(F)(F)F)cc3[nH]ncc3c2s1 [compound 136] | – | 295 nM | – | – | – |
| 85 nM | 483 nM | 66 nM | – | CC(C)(Nc1cccc(C(=O)NCC(=O)OCCO)c1)C(=O)Nc1nc2c(C(F)(F)F)cc3[nH]ncc3c2s1 [compound 86] | – | 274 nM | – | – | – |
| 30 nM | 105 nM | 39 nM | – | CC(C)(Nc1ccc(Cl)c(C(=O)NCCCS(N)(=O)=O)c1)C(=O)Nc1nc2c(C(F)(F)F)cc3[nH]ncc3c2s1 [compound 102] | – | 76 nM | – | – | – |
| 134 nM | 259 nM | 76 nM | 7.7 nM | CC(C)(Nc1ccc(Cl)c(C(=O)NCC(=O)O)c1)C(=O)Nc1nc2c(C(F)(F)F)cc3[nH]ncc3c2s1 [compound 145] | – | 194 nM | – | – | – |
| 160 nM | 446 nM | 247 nM | – | CC(C)(Nc1cccc(C(=O)NCCCC(=O)O)c1)C(=O)Nc1nc2c(C(F)(F)F)cc3[nH]ncc3c2s1 [compound 140] | – | 428 nM | – | – | – |
| 70 nM | 238 nM | 106 nM | 7.9 nM | CC(C)(Nc1ccc(Cl)c(C(=O)NCCC(=O)O)c1)C(=O)Nc1nc2c(C(F)(F)F)cc3[nH]ncc3c2s1 [compound 139] | – | 168 nM | – | – | – |

— patent US7879887B2, “α-amino acid derivatives and medicaments containing the same as an active ingredient” (Nissan Chemical Industries, Ltd., priority 2006, dated 2011)
